US11178873B2, “Cyclic N-carboxamide compounds useful as herbicides” (FMC CORPORATION, priority 2015, dated 2021)

What was measured:
Format in all cases: in vivo
[1] = system: barnyardgrass (Echinochloa crus-galli); assay: Test A preemergence, barnyardgrass; conditions: 0 to 100 scale, 0 no effect, 100 complete control
Procedure, shortened: (§1)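 Preemergence treatment was a directed soil spray; postemergence plants were 2 to 10 cm tall at the one- to two-leaf stage. Compounds were formulated in solvent with surfactant and grown in loam/sand in the greenhouse. Injury was scored visually against untreated controls after ~10 d, on a 0 (no effect) to 100 (complete control) scale.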

[2] = system: crabgrass, large (large crabgrass, Digitaria sanguinalis); assay: Test A preemergence, crabgrass, large; conditions: 0 to 100 scale, 0 no effect, 100 complete control
Description: (§2) Seeds of plant species selected from barnyardgrass (Echinochloa crus-galli), crabgrass, large (large crabgrass, Digitaria sanguinalis), kochia (Kochia scoparia), ragweed (common ragweed, Ambrosia elatior), morningglory (Ipomoea spp.), velvetleaf (Abutilon theophrasti), ryegrass, Italian (Italian ryegrass, Lolium multiflorum), foxtail, giant (giant foxtail, Setaria faberii), wheat (Triticum aestivum), corn (Zea mays), and pigweed (Amaranthus retroflexus), were planted into a blend of loam soil and sand and treated preemergence with a directed soil spray using test chemicals formulated in a non-phytotoxic solvent mixture which included a surfactant. At the same time, plants selected from these crop and weed species and also blackgrass (Alopecurus myosuroides), and galium (catchweed bedstraw, Galium aparine), were planted in pots containing the same blend of loam soil and sand and treated with postemergence applications of test chemicals formulated in the same manner. Plants ranged in height from 2 to 10 cm and were in the one- to two-leaf stage for the postemergence treatment. Treated plants and untreated controls were maintained in a greenhouse for approximately 10 d, after which time all treated plants were compared to untreated controls and visually evaluated for injury. Plant response ratings, summarized in Table A, are based on a 0 to 100 scale where 0 is no effect and 100 is complete control. A dash (-) response means no test result.

[3] = system: morningglory (Ipomoea spp.); assay: Test A preemergence, morningglory; conditions: 0 to 100 scale, 0 no effect, 100 complete control
Description: as §2

[4] = system: velvetleaf (Abutilon theophrasti); assay: Test A preemergence, velvetleaf; conditions: 0 to 100 scale, 0 no effect, 100 complete control
Description: as §2

[5] = system: foxtail, giant (giant foxtail, Setaria faberii); assay: Test A preemergence, foxtail, giant; conditions: 0 to 100 scale, 0 no effect, 100 complete control
Procedure, shortened: as §1

[6] = system: wheat (Triticum aestivum); assay: Test A preemergence, wheat; conditions: 0 to 100 scale, 0 no effect, 100 complete control
Description: as §2

[7] = system: corn (Zea mays); assay: Test A preemergence, corn; conditions: 0 to 100 scale, 0 no effect, 100 complete control
Description: as §2

[8] = system: pigweed (Amaranthus retroflexus); assay: Test A preemergence, pigweed; conditions: 0 to 100 scale, 0 no effect, 100 complete control
Procedure, shortened: as §1

[9] = system: barnyardgrass (Echinochloa crus-galli); assay: Test A postemergence, barnyardgrass; conditions: 0 to 100 scale, 0 no effect, 100 complete control
Procedure, shortened: as §1

[10] = system: crabgrass, large (large crabgrass, Digitaria sanguinalis); assay: Test A postemergence, crabgrass, large; conditions: 0 to 100 scale, 0 no effect, 100 complete control
Description: as §2

[11] = system: morningglory (Ipomoea spp.); assay: Test A postemergence, morningglory; conditions: 0 to 100 scale, 0 no effect, 100 complete control
Description: as §2

[12] = system: velvetleaf (Abutilon theophrasti); assay: Test A postemergence, velvetleaf; conditions: 0 to 100 scale, 0 no effect, 100 complete control
Description: as §2

[13] = system: foxtail, giant (giant foxtail, Setaria faberii); assay: Test A postemergence, foxtail, giant; conditions: 0 to 100 scale, 0 no effect, 100 complete control
Procedure, shortened: as §1

[14] = system: wheat (Triticum aestivum); assay: Test A postemergence, wheat; conditions: 0 to 100 scale, 0 no effect, 100 complete control
Procedure, shortened: as §1

[15] = system: corn (Zea mays); assay: Test A postemergence, corn; conditions: 0 to 100 scale, 0 no effect, 100 complete control
Procedure, shortened: as §1

[16] = system: pigweed (Amaranthus retroflexus); assay: Test A postemergence, pigweed; conditions: 0 to 100 scale, 0 no effect, 100 complete control
Procedure, shortened: as §1

[17] = system: barnyardgrass (Echinochloa crus-galli); assay: Test B flooded paddy test, barnyardgrass; conditions: Flood, 250 g ai/ha; scale 0 to 100 (0 no effect, 100 complete control); 13 to 15 d
Procedure, shortened: (§3)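 Ratings use a 0-100 visual scale, where 100 is complete control, and compare treated plants with controls after 13 to 15 d of greenhouse growth. Compound went straight into paddy water kept 3 cm over the soil surface, applied to seedlings at the 2-leaf stage.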

[18] = system: ducksalad (Heteranthera limosa); assay: Test B flooded paddy test, ducksalad; conditions: Flood, 250 g ai/ha; scale 0 to 100 (0 no effect, 100 complete control); 13 to 15 d
Procedure, shortened: as §3

[19] = system: rice (Oryza sativa); assay: Test B flooded paddy test, rice; conditions: Flood, 250 g ai/ha; scale 0 to 100 (0 no effect, 100 complete control); 13 to 15 d
Procedure, shortened: as §3

[20] = system: sedge, umbrella (small-flower umbrella sedge, Cyperus difformis); assay: Test B flooded paddy test, sedge, umbrella; conditions: Flood, 250 g ai/ha; scale 0 to 100 (0 no effect, 100 complete control); 13 to 15 d
Procedure, shortened: as §3

SMILES	Plant response rating, Barnyardgrass ([1]; 125 g ai/ha)	Plant response rating, Barnyardgrass ([1]; 500 g ai/ha)	Plant response rating, Crabgrass, Large ([2]; 125 g ai/ha)	Plant response rating, Crabgrass, Large ([2]; 500 g ai/ha)	Plant response rating, Morningglory ([3]; 125 g ai/ha)	Plant response rating, Morningglory ([3]; 500 g ai/ha)	Plant response rating, Velvetleaf ([4]; 125 g ai/ha)	Plant response rating, Velvetleaf ([4]; 500 g ai/ha)	Plant response rating, Foxtail, Giant ([5]; 125 g ai/ha)	Plant response rating, Foxtail, Giant ([5]; 500 g ai/ha)	Plant response rating, Wheat ([6]; 125 g ai/ha)	Plant response rating, Wheat ([6]; 500 g ai/ha)	Plant response rating, Corn ([7]; 125 g ai/ha)	Plant response rating, Corn ([7]; 500 g ai/ha)	Plant response rating, Pigweed ([8]; 125 g ai/ha)	Plant response rating, Pigweed ([8]; 500 g ai/ha)	Plant response rating, Barnyardgrass ([9]; 125 g ai/ha)	Plant response rating, Barnyardgrass ([9]; 500 g ai/ha)	Plant response rating, Crabgrass, Large ([10]; 125 g ai/ha)	Plant response rating, Crabgrass, Large ([10]; 500 g ai/ha)	further results
O=C(Nc1ccccc1Cl)N1C(=O)OCC1c1ccc(F)c(F)c1 (stereo not drawn) [Compound 2]	0	0	40	80	0	0	0	0	0	30	0	0	0	0	0	0	0	0	0	0	Plant response rating, Morningglory ([11]; 125 g ai/ha): 0; Plant response rating, Morningglory ([11]; 500 g ai/ha): 0; Plant response rating, Velvetleaf ([12]; 125 g ai/ha): 0; Plant response rating, Velvetleaf ([12]; 500 g ai/ha): 0; Plant response rating, Foxtail, Giant ([13]; 125 g ai/ha): 0; Plant response rating, Foxtail, Giant ([13]; 500 g ai/ha): 0; Plant response rating, Wheat ([14]; 125 g ai/ha): 0; Plant response rating, Wheat ([14]; 500 g ai/ha): 0; Plant response rating, Corn ([15]; 125 g ai/ha): 0; Plant response rating, Corn ([15]; 500 g ai/ha): 0; Plant response rating, Pigweed ([16]; 125 g ai/ha): 0; Plant response rating, Pigweed ([16]; 500 g ai/ha): 0; Plant response rating, Barnyardgrass [17]: 0; Plant response rating, Ducksalad [18]: 0; Plant response rating, Rice [19]: 0; Plant response rating, Sedge, Umbrella [20]: 0
O=C(Nc1ccccc1C(F)(F)F)N1C(=O)OCC1c1ccc(F)c(F)c1 (stereo not drawn) [Compound 1]	0	0	30	70	0	0	0	0	0	0	0	0	0	0	0	0	0	0	0	20	Plant response rating, Morningglory ([11]; 125 g ai/ha): 0; Plant response rating, Morningglory ([11]; 500 g ai/ha): 0; Plant response rating, Velvetleaf ([12]; 125 g ai/ha): 0; Plant response rating, Velvetleaf ([12]; 500 g ai/ha): 0; Plant response rating, Foxtail, Giant ([13]; 125 g ai/ha): 0; Plant response rating, Foxtail, Giant ([13]; 500 g ai/ha): 0; Plant response rating, Wheat ([14]; 125 g ai/ha): 0; Plant response rating, Wheat ([14]; 500 g ai/ha): 0; Plant response rating, Corn ([15]; 125 g ai/ha): 0; Plant response rating, Corn ([15]; 500 g ai/ha): 0; Plant response rating, Pigweed ([16]; 125 g ai/ha): 0; Plant response rating, Pigweed ([16]; 500 g ai/ha): 0; Plant response rating, Barnyardgrass [17]: 0; Plant response rating, Ducksalad [18]: 0; Plant response rating, Rice [19]: 0; Plant response rating, Sedge, Umbrella [20]: 0
